Measurements published in patent publication US20210369853A1, “TARGETED PROTEASE DEGRADATION PLATFORM” (EUBULUS BIOTHERAPEUTICS INC., priority 2018, published 2021).
pEC50: −log10 of the molar value. Like-named read-outs stand apart in the source and are kept apart here. Blank lines part the entries; values can stand above or below the molecule they belong to.

Key:
Type in all cases: cell-based
[1] = system: Human Small Cell Lung Cancer NCI-H82; assay: Cell proliferation experiment (Alarm blue, 72 h, EC50); details: NCIH82 cells
Summary of the method: (§1)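 Single-cell suspensions from log-phase cultures are plated, compound in complete medium is added at 5-fold dilution steps (two replicates each), and cells grow for 72 h. Viability is then measured as Alamar blue fluorescence, giving EC50 by sigmoidal fitting.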

[2] = system: Human Monocytic Leukemia MV4-11; assay: as above
Summary of the method: as §1

[3] = system: Human Colon Cancer HCT-116; assay: as above; details: HCT116 cells
Summary of the method: as §1

[4] = target: T1, BRD4 (Homo sapiens, UniProt O60885); assay: Western blot, protein degradation (DC50)
T1 construct: endogenous in cells
Procedure: (§2) Cells were treated with the compound for a period of time, after that the cells were collected by centrifugation. After washing with PBS, the cells were lysed by adding RIPA buffer; the cell lysate were added to the loading buffer and then appropriate volume were taken and slowly added to the corresponding wells of the gel plate, and run the SDS-PAGE gel (4%-12%). After running the gel, transferred to the PVDF membrane and sealed with 5% skimmed milk powder at room temperature for 1 hour. The membrane was placed in the primary antibody diluted with 5% skimmed milk powder and shaked slowly overnight at 4° C. After incubation with primary antibody, the membrane was washed 3 times using a TBST shaker; added secondary antibody diluted with 5% skimmed milk powder corresponding to the primary antibody, and shaked slowly at room temperature for 1 hour. After incubation with secondary antibody, the membrane was washed 3 times using the TBST shaker again. The PVDF membrane was flatted in the cassette, the strip was evenly infiltrated with ECL developer solution, and placed in ChemDoc XRS+ gel imager for taking pictures. The intensity of protein bands was analyzed quantitatively using ImageJ software.

[5] = target: T2, PLK1 (Homo sapiens, UniProt P53350); assay: Western blot, protein degradation (DC50)
T2 construct: endogenous in cells
Procedure: as §2

[6] = system: Human Colon Cancer HT-29; assay: Cell proliferation experiment (Alarm blue, 72 h, EC50); details: Homo sapiens; HT-29 cells
Summary of the method: as §1

[7] = system: Human Breast Cancer MDA-MB-231; assay: as above; details: Homo sapiens; MDA-MB-231 cells
Summary of the method: as §1

[8] = system: Human Acute Myelomonocytic Leukemia HL-60; assay: as above; details: HL-60 cells
Summary of the method: as §1

[9] = system: Human Glioma Cells U-87 MG; assay: as above; details: Homo sapiens; U-87MG cells
Summary of the method: as §1

[10] = system: Human Acute Lymphoblastic Leukemia Cells MOLT-4; assay: as above; details: MOL4-4 cells
Summary of the method: as §1

[11] = system: Human cervical adenocarcinoma cells Hela; assay: as above; details: Homo sapiens
Summary of the method: as §1

[12] = system: Human Monocytic Leukemia THP-1; assay: as above; details: THP-1 cells
Summary of the method: as §1

[13] = Homo sapiens, MV4-11, MV4;11 cells
[14] = 24 h, read-out: BRD4 DC50 (24 h)
[15] = 24 h, read-out: PLK1 DC50 (24 h)
[16] = 24 h, read-out: BRD4 DC50 (nM) (24 h)
[17] = 24 h, read-out: PLK1 DC50 (nM) (24 h)

T2 sequence (P53350 whole entry): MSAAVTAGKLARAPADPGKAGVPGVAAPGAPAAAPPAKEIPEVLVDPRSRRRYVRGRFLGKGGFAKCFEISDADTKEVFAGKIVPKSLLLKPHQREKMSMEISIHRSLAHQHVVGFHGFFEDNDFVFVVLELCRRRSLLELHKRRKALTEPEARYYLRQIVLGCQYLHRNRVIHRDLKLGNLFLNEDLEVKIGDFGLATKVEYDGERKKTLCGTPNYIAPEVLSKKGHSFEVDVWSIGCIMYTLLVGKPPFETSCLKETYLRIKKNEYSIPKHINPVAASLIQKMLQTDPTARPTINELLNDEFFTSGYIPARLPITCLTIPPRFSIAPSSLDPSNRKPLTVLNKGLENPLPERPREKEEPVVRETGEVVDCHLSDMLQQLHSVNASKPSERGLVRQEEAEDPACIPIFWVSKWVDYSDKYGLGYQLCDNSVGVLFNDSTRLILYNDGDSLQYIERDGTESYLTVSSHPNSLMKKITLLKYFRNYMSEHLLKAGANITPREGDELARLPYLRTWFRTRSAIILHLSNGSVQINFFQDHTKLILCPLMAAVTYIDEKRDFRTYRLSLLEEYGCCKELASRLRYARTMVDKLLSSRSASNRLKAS

Structure (SMILES): CC[C@@H]1C(=O)N(C)c2cnc(Nc3ccc(C(=O)NCCOCCNCCCC(=O)Nc4cccc5c4CN(C4CCC(=O)NC4=O)C5=O)cc3OC)nc2N1Cc1ccc(Br)cc1 (stereo partly shown) [UB-180625]
pEC50 ([1]; Homo sapiens, NCI-H82): < 6.00
pEC50 [2, 13]: 7.00 to 8.00
pEC50 ([3]; Homo sapiens, HCT-116): < 6.00
DC50 [4, 14]: < 10 nM
DC50 [5, 15]: < 10 nM

Structure (SMILES): CC[C@@H]1C(=O)N(C)c2cnc(Nc3ccc(C(=O)NCc4cn(CCNCCCC(=O)Nc5cccc6c5CN(C5CCC(=O)NC5=O)C6=O)nn4)cc3OC)nc2N1C1CCCC1 (stereo partly shown) [UB-180681]
pEC50 ([1]; Homo sapiens, NCI-H82): 6.00 to 7.00
pEC50 ([2]; Homo sapiens, MV4;11 cells): > 8.00
pEC50 [6]: 6.00 to 7.00
pEC50 [7]: 6.00 to 7.00
pEC50 [8]: 6.00 to 7.00
pEC50 [9]: 6.00 to 7.00
pEC50 [10]: 6.00 to 7.00
DC50 ([4]; 6 h, western blot, read-out: BRD4 DC50 (6 h)): < 10 nM
DC50 ([5]; 6 h, western blot, read-out: PLK1 DC50 (6 h)): 100 to 1000 nM

Structure (SMILES): CC[C@@H]1C(=O)N(C)c2cnc(Nc3ccc(C(=O)NCCOCCNCCCC(=O)Nc4cccc5c4CN(C4CCC(=O)NC4=O)C5=O)cc3OC)nc2N1Cc1ccc(Br)cc1 (stereo partly shown) [UB-180626]
pEC50 [1]: < 6.00
pEC50 ([2]; MV4;11 cells): 7.00 to 8.00
pEC50 [3]: < 6.00

Structure (SMILES): CC[C@@H]1C(=O)N(C)c2cnc(Nc3ccc(C(=O)NCCCNCCCCCCC(=O)Nc4cccc5c4CN(C4CCC(=O)NC4=O)C5=O)cc3OC)nc2N1Cc1ccc(Br)cc1 (stereo partly shown) [UB-180627]
pEC50 ([1]; Homo sapiens, NCI-H82): < 6.00
pEC50 [2, 13]: 7.00 to 8.00
pEC50 ([3]; Homo sapiens, HCT-116): < 6.00
DC50 [4, 14]: < 10 nM
DC50 [5, 15]: 100 to 1000 nM

Structure (SMILES): CC[C@@H]1C(=O)N(C)c2cnc(Nc3ccc(C(=O)NCc4cn(CCNCCOCC(=O)Nc5cccc6c5CN(C5CCC(=O)NC5=O)C6=O)nn4)cc3OC)nc2N1Cc1ccc(Cl)s1 (stereo partly shown) [UB-180720]
pEC50 ([1]; Homo sapiens, NCI-H82): 6.00 to 7.00
pEC50 ([2]; Homo sapiens, MV4;11 cells): > 8.00
pEC50 [6]: 6.00 to 7.00
pEC50 [7]: 6.00 to 7.00
pEC50 ([3]; Homo sapiens, HCT-116): 6.00 to 7.00
pEC50 [8]: 6.00 to 7.00
pEC50 [9]: 6.00 to 7.00
pEC50 [11]: 6.00 to 7.00
pEC50 [12]: 6.00 to 7.00
pEC50 [10]: 6.00 to 7.00
DC50 [4, 16]: < 10 nM
DC50 [5, 17]: < 10 nM

Further lines, results first:

pEC50 ([1]; Homo sapiens, NCI-H82): < 6.00
pEC50 [2, 13]: 7.00 to 8.00
pEC50 ([3]; Homo sapiens, HCT-116): < 6.00
Structure (SMILES): CC[C@@H]1C(=O)N(C)c2cnc(Nc3ccc(C(=O)NCCOCCOCCOCCNCCCCCC(=O)Nc4cccc5c4CN(C4CCC(=O)NC4=O)C5=O)cc3OC)nc2N1Cc1ccc(Br)cc1 (stereo partly shown) [UB-180644]

pEC50 [2, 13]: 6.00 to 7.00
pEC50 [8]: < 6.00
Structure (SMILES): O=C1CCC(N2Cc3c(NC(=O)CNCCOCCOCCOCCOCCNC(=O)c4ccc(Nc5ncc6c(n5)-c5ccc(Cl)cc5C(c5c(F)cccc5F)=NC6)cc4)cccc3C2=O)C(=O)N1 (stereo not shown) [UB-180801]

pEC50 ([1]; Homo sapiens, NCI-H82): < 6.00
pEC50 [2, 13]: 7.00 to 8.00
pEC50 ([3]; Homo sapiens, HCT-116): < 6.00
Structure (SMILES): CC[C@@H]1C(=O)N(C)c2cnc(Nc3ccc(C(=O)NCCCNCCCCCCCC(=O)Nc4cccc5c4CN(C4CCC(=O)NC4=O)C5=O)cc3OC)nc2N1Cc1ccc(Br)cc1 (stereo partly shown) [UB-180628]

pEC50 [2, 13]: 6.00 to 7.00
pEC50 ([3]; Homo sapiens, HCT-116): 6.00 to 7.00
pEC50 [8]: < 6.00
DC50 ([5]; 6 h, read-out: PLK1 DC50 (6 h)): < 10 nM
Structure (SMILES): O=C1CCC(N2Cc3c(NC(=O)CNCCOCCOCCOCCOCCNC(=O)[C@]4(Cc5cccc(Nc6nccs6)n5)CC[C@@H](Oc5cccc(Cl)c5F)CC4)cccc3C2=O)C(=O)N1 (stereo partly shown) [UB-180802]

pEC50 [2, 13]: 7.00 to 8.00
pEC50 [6]: 6.00 to 7.00
DC50 ([4]; 6 h, read-out: BRD4 DC50 (nM) (6 h)): < 10 nM
DC50 [4, 16]: < 10 nM
DC50 ([5]; 6 h, read-out: PLK1 DC50 (nM) (6 h)): 10 to 100 nM
DC50 [5, 17]: < 10 nM
Structure (SMILES): CC[C@@H]1C(=O)N(C)c2cnc(Nc3ccc(C(=O)NCc4cn(CCNCCOCC(=O)Nc5cccc6c5CN(C5CCC(=O)NC5=O)C6=O)nn4)cc3OC)nc2N1C1CCCC1 (stereo partly shown) [UB-180719]

pEC50 ([1]; Homo sapiens, NCI-H82): < 6.00
pEC50 [2, 13]: 7.00 to 8.00
pEC50 ([3]; Homo sapiens, HCT-116): < 6.00
Structure (SMILES): CC[C@@H]1C(=O)N(C)c2cnc(Nc3ccc(C(=O)NCCCNCCCCCC(=O)Nc4cccc5c4CN(C4CCC(=O)NC4=O)C5=O)cc3OC)nc2N1Cc1ccc(Br)cc1 (stereo partly shown) [UB-180639]
